Our source for the GI50 values is US20260138959A1, “QUINAZOLINE DERIVATIVE COMPOUND AND USE THEREOF” (VORONOI INC., priority 2021, published 2026).

Read-outs that look alike come from different tables or passages of the source. Bounds are passed on as bounds.

For one experiment, the system named is Ba/F3-c-KIT(D816V). The experiment can be described thus: Proliferation inhibitory activity on Ba/F3 cell (CellTiter-Glo, 72 hours), c-KIT(D816V). The format is cell-based. How it is done: (§1) Ba/F3-TEL-PDGFRα(WT), Ba/F3-TEL-PDGFβ(WT), Ba/F3-c-KIT(D816V) (Kyinno, #KC-0138), c-KIT V560G/D816V, c-KIT D814Y were seeded at 3×10^3/100 μl/well in a clear bottom white 96-well plate. A culture solution containing compounds of 12 concentrations (0.00001-2 mM) serially diluted in 3 folds and the DMSO control group was added at 0.5 μl/well each to a final concentration of 0.00005-10 μM, and then incubated in a CO2 incubator at 37° C. for 72 hours. After 72 hours, the plate treated with the compound was taken out, CellTiter-Glo® Assay (Promega) solution was treated with 100 μl/well, followed by mixing well. After mixing well for about 10 minutes at room temperature, […] was measured using a microplate reader. The data were presented as percentages in proportion to treated cells based on the vehicle, GI50 (nM) values were calculated using GraphPad Prism 8.3.0 (GraphPad software Inc., San Diego).
(§2) The inhibitory activities of Ba/F3 expressing PDGFR-α, PDGFR-β, c-KIT(D816V), c-KIT V560G/D816V, and c-KIT D814Y measured as described above were measured and shown in Table 7 below (A: GI50≤200 nM; B: 200 nM<GI50≤500 nM; C: GI50>500 nM).
(In general: Cellular ATP, detected with luciferase, serves as a proxy for viable cell number.)

Another experiment has as its system c-KIT V560G/D816V. The experiment can be described thus: Proliferation inhibitory activity on Ba/F3 cell (CellTiter-Glo, 72 hours), c-KIT V560G/D816V. The experiment is classed as cell-based. Particulars: read-out: Cell (nM) c-KIT V560G/D816V (GI50 class). How it is done: as §1, §2
The mark [1] stands for this setting: Mus musculus, BaF3, read-out: Ba/F3 (nM) c-KIT (D816V) (GI50 class).
[2] abbreviates: Mus musculus, BaF3, c-KIT V560G/D816V cells.

Regarding `COc1cc2c(-c3ccc(NC(=O)Cc4ccc(C(F)(F)F)cc4)cc3)ncnc2cc1OCCCN1CCN(C(C)=O)CC1` [Example 141, N-(4-(7-(3-(4-acetylpiperazin-1-yl)propoxy)-6-methoxyquinazolin-4-yl)phenyl)-2-(4-(trifluoromethyl)phenyl)acetamide], the GI50 with Ba/F3-c-KIT(D816V) (setting [1]) and in the experiment with c-KIT V560G/D816V (setting [2]) was at most 200 nM each time.

Consider `COc1cc2c(-c3ccc(NC(=O)Cc4ccc(C(F)(F)F)cc4)cc3)ncnc2cc1OCc1cccnc1` [Example 29, N-(4-(6-methoxy-7-(pyridin-3-ylmethoxy)quinazolin-4-yl)phenyl)-2-(4-(trifluoromethyl)phenyl)acetamide], for which the GI50 in the experiment with Ba/F3-c-KIT(D816V) (setting [1]) and in the experiment with c-KIT V560G/D816V (setting [2]) was at most 200 nM in each case.

`CCN1CCC(Oc2cc3c(-c4ccc(NC(=O)Cc5ccc(C(F)(F)F)cc5)cc4)ncnc3cc2OC)CC1` [Example 123, N-(4-(6-((1-ethylpiperidin-4-yl)oxy)-7-methoxyquinazolin-4-yl)phenyl)-2-(4-(trifluoromethyl)phenyl)acetamide]: the GI50 in the experiment on Ba/F3-c-KIT(D816V) (setting [1]) and in the experiment with c-KIT V560G/D816V (setting [2]) was at most 200 nM throughout.

As for `COCCN1CCCC(COc2cc3ncnc(-c4ccc(NC(=O)Cc5ccc(C(F)(F)F)cc5)cc4)c3cc2OC)C1` (stereo not drawn) [Example 42, N-(4-(6-methoxy-7-((1-(2-methoxyethyl)piperidin-3-yl)methoxy)quinazolin-4-yl)phenyl)-2-(4-(trifluoromethyl)phenyl)acetamide], the GI50 in the experiment with Ba/F3-c-KIT(D816V) (setting [1]) and with c-KIT V560G/D816V (setting [2]) was at most 200 nM in each case.

As to “N-(4-(7-methoxy-6-(pyridin-3-ylmethoxy)quinazolin-4-yl)phenyl)-2-(4-trifluoromethyl)phenyl)acetamide [Example 157]”, the GI50 with Ba/F3-c-KIT(D816V) (read-out: Ba/F3 (nM) c-KIT (D816V) (GI50 class)) was at most 200 nM; in the experiment with c-KIT V560G/D816V (c-KIT V560G/D816V cells) it was above 500 nM.

Regarding `COc1cc2c(-c3ccc(NC(=O)Cc4ccc(C(F)(F)F)cc4)cc3)ncnc2cc1OCCCN1CCC(C)CC1` [Example 44, N-(4-(6-methoxy-7-(3-(4-methylpiperidin-1-yl)propoxy)quinazolin-4-yl)phenyl)-2-(4-(trifluoromethyl)phenyl)acetamide], the GI50 with Ba/F3-c-KIT(D816V) (setting [1]) and with c-KIT V560G/D816V (setting [2]) was at most 200 nM each time.

For `COc1cc2c(-c3ccc(NC(=O)Cc4ccc(C(F)(F)F)cc4)cc3)ncnc2cc1OCCCCl` [Example 23, N-(4-(7-(3-chloropropoxy)-6-methoxyquinazolin-4-yl)phenyl)-2-(4-(trifluoromethyl)phenyl)acetamide], the GI50 in the experiment with Ba/F3-c-KIT(D816V) (setting [1]) was at most 200 nM; in the experiment on c-KIT V560G/D816V (setting [2]), 200 to 500 nM.

For the compound `COc1cc2ncnc(-c3ccc(NC(=O)Cc4ccc(C(F)(F)F)cc4)cc3)c2cc1OCCCN1CCN(C2CC2)CC1` [Example 127, N-(4-(6-(3-(4-cyclopropylpiperazin-1-yl)propoxy)-7-methoxyquinazolin-4-yl)phenyl)-2-(4-(trifluoromethyl)phenyl)acetamide], the GI50 was at most 200 nM with Ba/F3-c-KIT(D816V) (setting [1]) and 200 to 500 nM in the experiment on c-KIT V560G/D816V (setting [2]).

In the case of `COc1cc2ncnc(-c3ccc(NC(=O)Cc4ccc(C(F)(F)F)cc4)cc3)c2cc1OCCCN1CCCC1` [Example 160, N-(4-(7-methoxy-6-(3-(pyrrolidin-1-yl)propoxy)quinazolin-4-yl)phenyl)-2-(4-(trifluoromethyl)phenyl)acetamide], the GI50 in the experiment with Ba/F3-c-KIT(D816V) (setting [1]) and in the experiment on c-KIT V560G/D816V (setting [2]) was at most 200 nM each time.

For the compound `COc1cc2c(-c3ccc(NC(=O)Cc4ccc(C(F)(F)F)cc4)cc3)ncnc2cc1OC[C@H]1CCN(C(=O)OC(C)(C)C)C1` [Example 36, tert-butyl (S)-3-(((6-methoxy-4-(4-(2-(4-(trifluoromethyl)phenyl)acetamido)phenyl)quinazolin-7-yl)oxy)methyl)pyrrolidin-1-carboxylate], the GI50 in the experiment with Ba/F3-c-KIT(D816V) (setting [1]) was at most 200 nM; with c-KIT V560G/D816V (setting [2]) it was above 500 nM.

On to `COc1cc2c(-c3ccc(NC(=O)Cc4ccc(C(F)(F)F)cc4)cc3)ncnc2cc1OCCCNC1CC1` [Example 25, N-(4-(7-(3-(cyclopropylamino)propoxy)-6-methoxyquinazolin-4-yl)phenyl)-2-(4-(trifluoromethyl)phenyl)acetamide], for which the GI50 in the experiment with Ba/F3-c-KIT(D816V) (setting [1]) and with c-KIT V560G/D816V (setting [2]) was at most 200 nM throughout.

As to `CCN1CC[C@H](COc2cc3ncnc(-c4ccc(NC(=O)Cc5ccc(C(F)(F)F)cc5)cc4)c3cc2OC)C1` [Example 41, (S)-N-(4-(7-((1-ethylpyrrolidin-3-yl)methoxy)-6-methoxyquinazolin-4-yl)phenyl)-2-(4-(trifluoromethyl)phenyl)acetamide], the GI50 in the experiment with Ba/F3-c-KIT(D816V) (setting [1]) and with c-KIT V560G/D816V (setting [2]) was at most 200 nM throughout.

On to `COc1cc2c(-c3ccc(NC(=O)CCc4ccccc4)cc3)ncnc2cc1OCC1CCNCC1` [Example 71, N-(4-(6-methoxy-7-(piperidin-4-ylmethoxy)quinazolin-4-yl)phenyl)-3-phenylpropanamide], for which the GI50 was at most 200 nM in the experiment on Ba/F3-c-KIT(D816V) (setting [1]) and 200 to 500 nM with c-KIT V560G/D816V (setting [2]).

Regarding `COc1cc2c(-c3ccc(NC(=O)Cc4ccc(C(F)(F)F)cc4)cc3)ncnc2cc1OCCCN1CCN2CCCC2C1` (stereo not drawn) [Example 33, N-(4-(7-(3-(hexahydropyrrolo[1,2-a]pyrazin-2(1H)-yl)propoxy)-6-methoxyquinazolin-4-yl)phenyl)-2-(4-(trifluoromethyl)phenyl)acetamide], the GI50 with Ba/F3-c-KIT(D816V) (setting [1]) and in the experiment on c-KIT V560G/D816V (setting [2]) was at most 200 nM throughout.

As for `COc1cc2c(-c3ccc(NC(=O)Cc4ccc(C(F)(F)F)cc4)cc3)ncnc2cc1OC[C@@H]1CCCNC1` [Example 73, (R)-N-(4-(6-methoxy-7-(piperidin-3-ylmethoxy)quinazolin-4-yl)phenyl)-2-(4-(trifluoromethyl)phenyl)acetamide], the GI50 in the experiment with Ba/F3-c-KIT(D816V) (setting [1]) and in the experiment with c-KIT V560G/D816V (setting [2]) was at most 200 nM in each case.

In the case of `COc1cc2c(-c3ccc(NC(=O)Cc4ccc(Cl)c(C(F)(F)F)c4)cc3)ncnc2cc1OCC1CCNCC1` [Example 77, 2-(4-chloro-3-(trifluoromethyl)phenyl)-N-(4-(6-methoxy-7-(piperidin-4-ylmethoxy)quinazolin-4-yl)phenyl)acetamide], the GI50 in the experiment on Ba/F3-c-KIT(D816V) (setting [1]) is at most 200 nM; in the experiment with c-KIT V560G/D816V (setting [2]), 200 to 500 nM.

As to `COc1ccc(CN2CC(Oc3cc4ncnc(-c5ccc(NC(=O)Cc6ccc(C(F)(F)F)cc6)cc5)c4cc3OC)C2)cc1` [Example 27, N-(4-(6-methoxy-7-((1-(4-methoxybenzyl)azetidin-3-yl)oxy)quinazolin-4-yl)phenyl)-2-(4-(trifluoromethyl)phenyl)acetamide], the figures for the GI50 with Ba/F3-c-KIT(D816V) (setting [1]) and in the experiment on c-KIT V560G/D816V (setting [2]) were at most 200 nM and above 500 nM, respectively.

Turning to `CCN1CCC(COc2cc3ncnc(-c4ccc(NC(=O)Cc5ccc(Cl)c(C(F)(F)F)c5)cc4)c3cc2OC)CC1` [Example 78, 2-(4-chloro-3-(trifluoromethyl)phenyl)-N-(4-(7-((1-ethylpiperidin-4-yl)methoxy)-6-methoxyquinazolin-4-yl)phenyl)acetamide], the GI50 in the experiment with Ba/F3-c-KIT(D816V) (setting [1]) and in the experiment on c-KIT V560G/D816V (setting [2]) was at most 200 nM each time.

Consider `COc1cc2c(-c3ccc(NC(=O)Cc4ccc(C(F)(F)F)cc4)cc3)ncnc2cc1OC[C@@H]1CCN(C(=O)OC(C)(C)C)C1` [Example 35, tert-butyl (R)-3-(((6-methoxy-4-(4-(2-(4-(trifluoromethyl)phenyl)acetamido)phenyl)quinazolin-7-yl)oxy)methyl)pyrrolidin-1-carboxylate], for which the GI50 in the experiment on Ba/F3-c-KIT(D816V) (setting [1]) was at most 200 nM; in the experiment with c-KIT V560G/D816V (setting [2]) it was above 500 nM.

Regarding `COc1cc2c(-c3ccc(NC(=O)Cc4ccc(C(F)(F)F)cc4)cc3)ncnc2cc1OC1CNC1` [Example 24, N-(4-(7-(azetidine-3-yloxy)-6-methoxyquinazolin-4-yl)phenyl)-2-(4-(trifluoromethyl)phenyl)acetamide], the GI50 in the experiment with Ba/F3-c-KIT(D816V) (setting [1]) was at most 200 nM; in the experiment on c-KIT V560G/D816V (setting [2]), above 500 nM.

As to `COc1cc2ncnc(-c3ccc(NC(=O)Cc4ccc(C(F)(F)F)cc4)cc3)c2cc1O[C@H]1CCCO1` [Example 156, (S)-N-(4-(7-methoxy-6-((tetrahydrofuran-2-yl)oxy)quinazolin-4-yl)phenyl)-2-(4-(trifluoromethyl)phenyl)acetamide], the GI50 was at most 200 nM with Ba/F3-c-KIT(D816V) (setting [1]) and 200 to 500 nM with c-KIT V560G/D816V (setting [2]).

In the case of `COc1cc2ncnc(-c3ccc(NC(=O)Cc4ccc(C(F)(F)F)cc4)cc3)c2cc1OC1CCNC1` (stereo not drawn) [Example 139, N-(4-(7-methoxy-6-(pyrrolidin-3-yloxy)quinazolin-4-yl)phenyl)-2-(4-(trifluoromethyl)phenyl)acetamide], the GI50 is at most 200 nM with Ba/F3-c-KIT(D816V) (setting [1]) and above 500 nM in the experiment with c-KIT V560G/D816V (setting [2]).

In the case of `COc1cc2c(-c3ccc(NC(=O)Cc4ccc(C(F)(F)F)cc4)cc3)ncnc2cc1OC[C@H]1CCNC1` [Example 39, (S)-N-(4-(6-methoxy-7-(pyrrolidin-3-ylmethoxy)quinazolin-4-yl)phenyl)-2-(4-(trifluoromethyl)phenyl)acetamide], the figures for the GI50 with Ba/F3-c-KIT(D816V) (setting [1]) and in the experiment on c-KIT V560G/D816V (setting [2]) were at most 200 nM and 200 to 500 nM, respectively.

Turning to `COc1cc2c(-c3ccc(NC(=O)Cc4cccc(C(F)(F)F)c4)cc3)ncnc2cc1OCC1CCNCC1` [Example 60, N-(4-(6-methoxy-7-(piperidin-4-ylmethoxy)quinazolin-4-yl)phenyl)-2-(3-(trifluoromethyl)phenyl)acetamide], the results for the GI50 with Ba/F3-c-KIT(D816V) (setting [1]) and in the experiment on c-KIT V560G/D816V (setting [2]) were at most 200 nM and 200 to 500 nM, respectively.
